Measured values from publication PMC4809600, “The Influence of Chronic Wound Extracts on Inflammatory Cytokine and Histatin Stability” (PLoS ONE, 2016).

System: dermal fibroblasts
Assay: Fibroblast wound healing scratch assay (migration)
Format: cell-based, human
Conditions: serum-free medium, histatins 5 μM, rhIL-6 125 ng/ml, rhCXCL8 250 ng/ml, (E0-E96)/(U0-U96), unexposed = 1; for Migration of dermal fibroblasts in scratch assay, 8 h exposure: 8 h exposure then 88 h without, read at 96 h; for Migration of dermal fibroblasts in scratch assay, 96 h exposure: continuous 96 h exposure
Method: Dermal fibroblasts were isolated from healthy human abdominal skin from patients undergoing corrective abdominal plastic surgery. After removal of all adipose tissue, the skin was washed in PBS and incubated overnight on dispase II (Roche, Mannheim, Germany) at 4°C. The next day, epidermis was removed and discarded and the dermis was incubated in collagenase type II (Gibco, Life Technologies, Grand Island, USA)/dispase II in Hanks balanced salt solution (HBSS) (Gibco) at 37°C for 2–3 h. Fibroblast medium consisting of DMEM (Lonza, Verviers, Belgium) containing 1% ultroserG (UG) (Biosepra, Cergy-Saint-Christopher, France) and 1% penicillin-streptomycin (P/S) (Gibco) was added and the solution was passed through an 100 μm and 40 μm cell strainer (Becton Dickinson Falcon, Erembodegem, Belgium). A single cell suspension was seeded at ± 3.5 x 10^4 cells cm^2 and further cultured in fibroblast medium. Medium was changed twice a week and cultures were passaged when 90% confluent using 0.5mM EDTA/0.05% trypsin (Gibco). The cells were maintained at 37°C in a humidified atmosphere containing 5% CO2 and used for experiments at passage 3.
A wound healing scratch assay was performed to determine the effect of histatins, rhIL-6 and rhCXCL8 on fibroblast migration. Confluent monolayers of fibroblasts in a 48-well plate (Costar, Corning Incorporated, New York, USA) were incubated with serum-free medium (DMEM containing 1% P/S and 0.1% bovine serum albumin (Sigma-Aldrich)) for 96 h to ensure minimum spontaneous migration. Next, a scratch was drawn with a disposable plastic pipette tip. Cultures were exposed to Hst1, cHst1, Hst2 and mad-Hst1 (all used at a concentration of 5μM), rhIL-6 (125 ng/ml), rhCXCL8 (250 ng/ml) and vehicle (H2O) in serum free medium. Two experimental set-ups were studied: i) cells were exposed only during the first 8 h to histatins and cytokines and then transferred to vehicle supplemented medium for an additional 88 h; or ii) cells were exposed to histatins and cytokines during the entire 96 h study period. Phase contrast micrographs were taken directly after drawing the scratch and after four days (96 h) of exposure. Data were analyzed using an image processing algorithm that has been described in detail in our previous work. The area of the scratch covered by migrating fibroblasts was determined using the following equation: (E0-E96)/(U0-U96), in which: E = exposure to a condition (IL-6, CXCL8 and histatins); U = unexposed (serum-free medium); E0 and U0 = area of the scratch at T = 0 h; E96 and U96 = area of the scratch (not covered with cells) after 96 h. In this way, in each exposed group (IL-6, CXCL8, histatins) the resurfaced area at 96 h is compared to its own 0 h time point and then set relative to the unexposed group (serum-free medium).

[1] = experiment 1, average of four replicates
[2] = experiment 2, average of four replicates
[3] = experiment 3, average of four replicates

## cyclo(DNLPETGGDSHEKRHHGYRRKFHEKHHSHREFPFYGDYGSNYLY) [cHst1]
[1]
  Migration of dermal fibroblasts in scratch assay, 8 h exposure: 1.6
  Migration of dermal fibroblasts in scratch assay, 96 h exposure: 1.46
[2]
  Migration of dermal fibroblasts in scratch assay, 8 h exposure: 1.24
  Migration of dermal fibroblasts in scratch assay, 96 h exposure: 1.26
[3]
  Migration of dermal fibroblasts in scratch assay, 8 h exposure: 1.53
  Migration of dermal fibroblasts in scratch assay, 96 h exposure: 1.33
